Experimental findings from US20050203065A1, “Method of treating ischemia reperfusion injury using adenosine receptor antagonists” (priority 2002, published 2005) are described below.

The assay deals with T1, recombinant canine A2a adenosine receptors (Canis lupus familiaris, UniProt P11617).
T1 construct: expressed in transfected cells
Nature of the assay: Radioligand competition binding, canine A2a receptor (3H-ZM 241385), transfected HEK 293 membranes. The note with it: canine; mean ± SEM, n = 3; 3H-ZM 241385; read-out: Ki, A2a. As for the experimental part:
Membranes (40-70 μg membrane protein), radioligands, and varying concentrations of competing ligands were incubated in triplicate in 0.1 ml buffer HE plus 2 units/mL adenosine deaminase for 2.5 hours at 21° C. […] Nonspecific binding was measured in the presence of 10 μM 5′N ethylcarboxamidoadenosine (NECA, from RBI-Sigma, Natick, Mass.) for A1 and A2b receptors, or 10 μM xanthine amino congener (XAC, from RBI-Sigma, Natick, Mass.) for A2a receptors. Binding assays were terminated by filtration over Whatman GF/C glass fiber filters using a BRANDEL cell harvester (Gaithersburg, Md.).

Molecules are shown by their SMILES.

T1 sequence (P11617 whole entry): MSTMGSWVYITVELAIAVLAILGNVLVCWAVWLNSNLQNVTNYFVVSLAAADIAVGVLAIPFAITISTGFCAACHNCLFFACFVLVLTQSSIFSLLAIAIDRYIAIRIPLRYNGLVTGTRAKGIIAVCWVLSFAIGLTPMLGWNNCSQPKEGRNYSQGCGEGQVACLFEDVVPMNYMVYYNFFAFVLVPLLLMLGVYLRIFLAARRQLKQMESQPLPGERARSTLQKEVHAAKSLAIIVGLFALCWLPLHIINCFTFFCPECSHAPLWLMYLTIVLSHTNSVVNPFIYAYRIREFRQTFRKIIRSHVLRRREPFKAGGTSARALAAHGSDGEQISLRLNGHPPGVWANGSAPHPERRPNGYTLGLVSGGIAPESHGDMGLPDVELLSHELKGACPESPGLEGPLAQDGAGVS

For the compound `CCCn1c(=O)c2[nH]c(C34CCC(CCC(=O)O)(CC3)CC4)nc2n(CCC)c1=O` [BG 9928, 3-[4-(2,6-dioxo-1,3-dipropyl-2,3,6,7-tetrahydro-1H-purin-8-yl)-bicyclo[2.2.2]oct-1-yl]-propionic acid], the Ki stood at 4.31 µM.
